In PubChem BioAssay AID248 (DTP/NCI, 2004):
“And” between values parts separate entries of the source, which are not always exact repeats. Equal values may be shown once. Inconclusive results and toxic doses are left out.

Tested on: L1210 leukemia ip in BDF1 mice, survival T/C
Assay: NCI In Vivo Anticancer Drug Screen. Data for tumor model L1210 Leukemia (intraperitoneal) in B6D2F1 (BDF1) mice
Settings: endpoint: mean survival time, higher = longer survival
Outline: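 Read-out is survival time, reported as the treated-group measurement over the vehicle-control measurement.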

[1] = dose: 100.0 mg/kg/injection, schedule: Q01DX001 (ip), vehicle: Klucel (hydroxypropylcellulose) (HPC)
[2] = dose: 400.0 mg/kg/injection, schedule: Q04DX003 (ip), vehicle: saline with Tween-80

In the case of `CC1=C(Br)C(=O)C(C)=C(Br)C1=O`, the T/C (dose: 25.0 mg/kg/injection, schedule: Q04DX003 (ip), vehicle: other) is reported as 95 % of control, the T/C (dose: 50.0 mg/kg/injection, schedule: Q04DX003 (ip), vehicle: other) is reported as 87 % of control and the T/C (dose: 100.0 mg/kg/injection, schedule: Q04DX003 (ip), vehicle: other) is reported as 100 % of control.
`CC(C)(Cc1ccc(Cl)cc1)N=C(N)N` was tested, and the T/C (dose: 25.0 mg/kg/injection, schedule: Q04DX002 (ip), vehicle: Klucel (hydroxypropylcellulose) (HPC)) was 107 % of control, the T/C (dose: 50.0 mg/kg/injection, schedule: Q04DX002 (ip), vehicle: Klucel (hydroxypropylcellulose) (HPC)) was 95 % of control and the T/C (dose: 100.0 mg/kg/injection, schedule: Q04DX002 (ip), vehicle: Klucel (hydroxypropylcellulose) (HPC)) was 104 % of control.
With `S=C(SSC(=S)N1CCOCC1)N1CCOCC1` the T/C [1] was 88 % of control, the T/C (dose: 100.0 mg/kg/injection, schedule: Q04DX003 (ip), vehicle: saline) was 93 % of control and the T/C (dose: 200.0 mg/kg/injection, schedule: Q01DX001 (ip), vehicle: Klucel (hydroxypropylcellulose) (HPC)) was 101 % of control. The T/C (dose: 200.0 mg/kg/injection, schedule: Q04DX003 (ip), vehicle: saline) was 101 % of control.
For `CC/C(C)=C\CC/C(C)=C\COc1ccccc1C`, the T/C (dose: 100.0 mg/kg/injection, schedule: Q04DX002 (ip), vehicle: saline with Tween-80) was 91 % of control, the T/C (dose: 200.0 mg/kg/injection, schedule: Q04DX002 (ip), vehicle: saline with Tween-80) was 94 % of control and the T/C (dose: 400.0 mg/kg/injection, schedule: Q04DX002 (ip), vehicle: saline with Tween-80) was 89 % of control.
With `CCCCNC(=O)C(C)S(=O)(=O)c1ccc(N)cc1` (stereo not given) the T/C (dose: 100.0 mg/kg/injection, schedule: Q04DX003 (ip), vehicle: saline with Tween-80) was 98 % of control, the T/C (dose: 200.0 mg/kg/injection, schedule: Q04DX003 (ip), vehicle: saline with Tween-80) was 96 % of control and the T/C [2] was 102 % of control.
In the case of `C=CCc1cnc(C(F)(F)F)[nH]c1=O`, the T/C (dose: 25.0 mg/kg/injection, schedule: Q01DX001 (ip), vehicle: Klucel (hydroxypropylcellulose) (HPC)) is reported as 93 % of control, the T/C (dose: 50.0 mg/kg/injection, schedule: Q01DX001 (ip), vehicle: Klucel (hydroxypropylcellulose) (HPC)) is reported as 94 % of control and the T/C [1] is reported as 94 % of control.
In the case of `CC1(C)N=C(N)N=C(N)N1c1cccc(Cl)c1Cl`, the T/C (dose: 5.0 mg/kg/injection, schedule: Q01DX009 (ip), vehicle: saline) is reported as 95 % of control, the T/C (dose: 10.0 mg/kg/injection, schedule: Q01DX009 (ip), vehicle: saline) is reported as 104 % of control and the T/C (dose: 20.0 mg/kg/injection, schedule: Q01DX009 (ip), vehicle: saline) is reported as 107 % of control.
With `Cc1ccc(S(=O)(=O)N/N=C/C(=O)O)cc1` the T/C (dose: 10.0 mg/kg/injection, schedule: Q01DX009 (ip), vehicle: other) was 116 % of control, the T/C (dose: 15.0 mg/kg/injection, schedule: Q01DX009 (ip), vehicle: other) was 118 % of control and the T/C (dose: 27.0 mg/kg/injection, schedule: Q01DX009 (ip), vehicle: saline) was 158 % of control. The T/C (dose: 33.0 mg/kg/injection, schedule: Q01DX009 (ip), vehicle: other) was 166 % of control, the T/C (dose: 40.0 mg/kg/injection, schedule: Q01DX009 (ip), vehicle: saline) was 153 % of control and the T/C (dose: 50.0 mg/kg/injection, schedule: Q01DX009 (ip), vehicle: water) was 108 % of control. For the same compound, the T/C (dose: 75.0 mg/kg/injection, schedule: Q01DX001 (ip), vehicle: saline) was 119 % of control, the T/C (dose: 90.0 mg/kg/injection, schedule: Q01DX009 (ip), vehicle: saline) was 164 % of control and the T/C (dose: 100.0 mg/kg/injection, schedule: Q01DX009 (ip), vehicle: saline with Tween-80) was 120 % of control. For the same compound, the T/C (dose: 100.0 mg/kg/injection, schedule: Q01DX009 (ip), vehicle: water) was 92 % of control, the T/C (dose: 112.0 mg/kg/injection, schedule: Q01DX009 (ip), vehicle: other) was 97 % of control and the T/C (dose: 144.0 mg/kg/injection, schedule: Q04DX003 (ip), vehicle: saline with Tween-80) was 97 % of control. The T/C (dose: 150.0 mg/kg/injection, schedule: Q01DX009 (ip), vehicle: saline with Tween-80) was 116 % of control, the T/C (dose: 200.0 mg/kg/injection, schedule: Q01DX009 (ip), vehicle: saline with Tween-80) was 112 % of control and the T/C (dose: 240.0 mg/kg/injection, schedule: Q04DX003 (ip), vehicle: saline with Tween-80) was 107 % of control. For the same compound, the T/C [2] was 108 % of control and the T/C (dose: 500.0 mg/kg/injection, schedule: Q01DX009 (ip), vehicle: saline with Tween-80) was 117 % of control.
With `CC(=O)NC1C(=O)NS(=O)(=O)C1c1ccccc1` (stereo not given) the T/C (dose: 50.0 mg/kg/injection, schedule: Q01DX009 (ip), vehicle: saline) was 96 % of control and 97 % of control, the T/C (dose: 100.0 mg/kg/injection, schedule: Q01DX001 (ip), vehicle: saline) was 104 % of control and 92 % of control and the T/C (dose: 100.0 mg/kg/injection, schedule: Q01DX009 (ip), vehicle: saline) was 97 % of control and 94 % of control. The T/C (dose: 200.0 mg/kg/injection, schedule: Q01DX001 (ip), vehicle: saline) was 92 % of control, the T/C (dose: 200.0 mg/kg/injection, schedule: Q01DX009 (ip), vehicle: saline) was 94 % of control and 91 % of control and the T/C (dose: 400.0 mg/kg/injection, schedule: Q01DX001 (ip), vehicle: saline) was 92 % of control.
